Test results: PubChem BioAssay (NCI)
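These data come from cells grown in 96-well plates and exposed to compound for 48 hours at five concentrations. Definition used: TGI = concentration required for complete inhibition of growth.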

Legend:
Assay in all cases: growth of human tumour cells (NCI), 48 h
786-0 renal = tested on: 786-0 renal
A498 renal = tested on: A498 renal
A549 NSCLC = tested on: A549 NSCLC
ACHN renal = tested on: ACHN renal
BT-549 breast = tested on: BT-549 breast
CAKI-1 renal = tested on: CAKI-1 renal
CCRF-CEM leukemia = tested on: CCRF-CEM leukemia
COLO 205 colon = tested on: COLO 205 colon
DU-145 prostate = tested on: DU-145 prostate
EKVX NSCLC = tested on: EKVX NSCLC
HCC-2998 colon = tested on: HCC-2998 colon
HCT-116 colon = tested on: HCT-116 colon
HCT-15 colon = tested on: HCT-15 colon
HL-60(TB) leukemia = tested on: HL-60(TB) leukemia
HOP-62 NSCLC = tested on: HOP-62 NSCLC
HOP-92 NSCLC = tested on: HOP-92 NSCLC
HS 578T breast = tested on: HS 578T breast
HT29 colon = tested on: HT29 colon
IGROV1 ovarian = tested on: IGROV1 ovarian
K-562 leukemia = tested on: K-562 leukemia
KM12 colon = tested on: KM12 colon
LOX IMVI melanoma = tested on: LOX IMVI melanoma
M14 melanoma = tested on: M14 melanoma
MALME-3M melanoma = tested on: MALME-3M melanoma
MCF7 breast = tested on: MCF7 breast
MDA-MB-231 breast = tested on: MDA-MB-231 breast
MDA-MB-435 = tested on: MDA-MB-435
MDA-N = tested on: MDA-N
MOLT-4 leukemia = tested on: MOLT-4 leukemia
NCI-H23 lung = tested on: NCI-H23 lung
NCI-H522 lung = tested on: NCI-H522 lung
NCI/ADR-RES ovarian = tested on: NCI/ADR-RES ovarian
OVCAR-3 ovarian = tested on: OVCAR-3 ovarian
OVCAR-5 ovarian = tested on: OVCAR-5 ovarian
OVCAR-8 ovarian = tested on: OVCAR-8 ovarian
PC-3 prostate = tested on: PC-3 prostate
RPMI-8226 leukemia = tested on: RPMI-8226 leukemia
RXF 393 renal = tested on: RXF 393 renal
SF-268 CNS = tested on: SF-268 CNS
SF-295 CNS = tested on: SF-295 CNS
SF-539 CNS = tested on: SF-539 CNS
SK-MEL-2 melanoma = tested on: SK-MEL-2 melanoma
SK-MEL-28 melanoma = tested on: SK-MEL-28 melanoma
SK-MEL-5 melanoma = tested on: SK-MEL-5 melanoma
SN12C renal = tested on: SN12C renal
SNB-19 CNS = tested on: SNB-19 CNS
SNB-75 CNS = tested on: SNB-75 CNS
SR leukemia = tested on: SR leukemia
SW-620 colon = tested on: SW-620 colon
T-47D breast = tested on: T-47D breast
TK-10 renal = tested on: TK-10 renal
U251 CNS = tested on: U251 CNS
UACC-257 melanoma = tested on: UACC-257 melanoma
UACC-62 melanoma = tested on: UACC-62 melanoma
UO-31 renal = tested on: UO-31 renal
NCI-H226 lung = tested on: NCI-H226 lung
NCI-H460 lung = tested on: NCI-H460 lung
OVCAR-4 ovarian = tested on: OVCAR-4 ovarian
SK-OV-3 ovarian = tested on: SK-OV-3 ovarian

S=C(S)N1CCN(c2cccc(Cl)c2)CC1
TGI (786-0 renal): > 100 µM | TGI (A498 renal): > 100 µM | TGI (A549 NSCLC): > 100 µM | TGI (ACHN renal): > 100 µM | TGI (BT-549 breast): > 100 µM | TGI (CAKI-1 renal): > 100 µM | TGI (CCRF-CEM leukemia): > 100 µM | TGI (COLO 205 colon): > 100 µM | TGI (DU-145 prostate): > 100 µM | TGI (EKVX NSCLC): > 100 µM | TGI (HCC-2998 colon): > 100 µM | TGI (HCT-116 colon): > 100 µM | TGI (HCT-15 colon): > 100 µM | TGI (HL-60(TB) leukemia): > 100 µM | TGI (HOP-62 NSCLC): > 100 µM | TGI (HOP-92 NSCLC): > 100 µM | TGI (HS 578T breast): > 100 µM | TGI (HT29 colon): > 100 µM | TGI (IGROV1 ovarian): > 100 µM | TGI (K-562 leukemia): > 100 µM | TGI (KM12 colon): > 100 µM | TGI (LOX IMVI melanoma): > 100 µM | TGI (M14 melanoma): > 100 µM | TGI (MALME-3M melanoma): > 100 µM | TGI (MCF7 breast): > 100 µM | TGI (MDA-MB-231 breast): > 100 µM | TGI (MDA-MB-435): > 100 µM | TGI (MDA-N): > 100 µM | TGI (MOLT-4 leukemia): > 100 µM | TGI (NCI-H23 lung): > 100 µM | TGI (NCI-H522 lung): > 100 µM | TGI (NCI/ADR-RES ovarian): > 100 µM | TGI (OVCAR-3 ovarian): > 100 µM | TGI (OVCAR-5 ovarian): > 100 µM | TGI (OVCAR-8 ovarian): > 100 µM | TGI (PC-3 prostate): > 100 µM | TGI (RPMI-8226 leukemia): > 100 µM | TGI (RXF 393 renal): > 100 µM | TGI (SF-268 CNS): > 100 µM | TGI (SF-295 CNS): > 100 µM | TGI (SF-539 CNS): > 100 µM | TGI (SK-MEL-2 melanoma): > 100 µM | TGI (SK-MEL-28 melanoma): > 100 µM | TGI (SK-MEL-5 melanoma): > 100 µM | TGI (SN12C renal): > 100 µM | TGI (SNB-19 CNS): > 100 µM | TGI (SNB-75 CNS): > 100 µM | TGI (SR leukemia): > 100 µM | TGI (SW-620 colon): > 100 µM | TGI (T-47D breast): > 100 µM | TGI (TK-10 renal): > 100 µM | TGI (U251 CNS): > 100 µM | TGI (UACC-257 melanoma): > 100 µM | TGI (UACC-62 melanoma): > 100 µM | TGI (UO-31 renal): > 100 µM

OC1(c2ccccc2)c2ccccc2NC2=NCCN21 (stereo unspecified)
TGI (786-0 renal): > 100 µM | TGI (A498 renal): > 100 µM | TGI (A549 NSCLC): > 100 µM | TGI (ACHN renal): > 100 µM | TGI (BT-549 breast): > 100 µM | TGI (CAKI-1 renal): > 100 µM | TGI (COLO 205 colon): 99.6 µM | TGI (DU-145 prostate): > 100 µM | TGI (EKVX NSCLC): > 100 µM | TGI (HCC-2998 colon): 31.3 µM | TGI (HCT-116 colon): > 100 µM | TGI (HCT-15 colon): > 100 µM | TGI (HL-60(TB) leukemia): > 100 µM | TGI (HOP-62 NSCLC): > 100 µM | TGI (HOP-92 NSCLC): > 100 µM | TGI (HS 578T breast): > 100 µM | TGI (HT29 colon): > 100 µM | TGI (IGROV1 ovarian): > 100 µM | TGI (KM12 colon): > 100 µM | TGI (LOX IMVI melanoma): > 100 µM | TGI (M14 melanoma): > 100 µM | TGI (MCF7 breast): > 100 µM | TGI (MDA-MB-231 breast): > 100 µM | TGI (MDA-MB-435): > 100 µM | TGI (MDA-N): > 100 µM | TGI (MOLT-4 leukemia): 52.2 µM | TGI (NCI-H226 lung): > 100 µM | TGI (NCI-H23 lung): > 100 µM | TGI (NCI-H460 lung): > 100 µM | TGI (NCI-H522 lung): > 100 µM | TGI (NCI/ADR-RES ovarian): > 100 µM | TGI (OVCAR-3 ovarian): > 100 µM | TGI (OVCAR-4 ovarian): > 100 µM | TGI (OVCAR-5 ovarian): > 100 µM | TGI (OVCAR-8 ovarian): > 100 µM | TGI (PC-3 prostate): > 100 µM | TGI (RPMI-8226 leukemia): 45.8 µM | TGI (RXF 393 renal): > 100 µM | TGI (SF-268 CNS): > 100 µM | TGI (SF-295 CNS): > 100 µM | TGI (SF-539 CNS): > 100 µM | TGI (SK-MEL-2 melanoma): > 100 µM | TGI (SK-MEL-28 melanoma): > 100 µM | TGI (SK-MEL-5 melanoma): > 100 µM | TGI (SK-OV-3 ovarian): > 100 µM | TGI (SN12C renal): > 100 µM | TGI (SNB-19 CNS): > 100 µM | TGI (SNB-75 CNS): > 100 µM | TGI (SR leukemia): 45 µM | TGI (SW-620 colon): > 100 µM | TGI (T-47D breast): > 100 µM | TGI (TK-10 renal): > 100 µM | TGI (U251 CNS): > 100 µM | TGI (UACC-257 melanoma): > 100 µM | TGI (UACC-62 melanoma): > 100 µM | TGI (UO-31 renal): > 100 µM
